Reference: PMC10099595, “Multimodal 4-arylchromene derivatives with microtubule-destabilizing, anti-angiogenic, and MYB-inhibitory activities” (Cancer Drug Resistance, 2023)

Key:
[1] = system: EA.hy926 endothelial hybrid cells; details: positive control; ref Köhler et al.[20]; cited from earlier work
518A2 melanoma cells = details: positive control; ref Köhler et al.[20]; cited from earlier work
[2] = system: HCT-116 colon carcinoma cells; details: positive control; ref Köhler et al.[20]; cited from earlier work
[3] = system: HCT-116 p53-/- colon carcinoma cells; details: positive control; ref Köhler et al.[20]; cited from earlier work
U-87 glioblastoma cells = details: positive control; ref Köhler et al.[20]; read-out: IC50 U87; cited from earlier work
[4] = system: HT-29 colon carcinoma cells; details: positive control; ref Köhler et al.[20]; cited from earlier work
[5] = system: KB-V1^Vbl cervix carcinoma cells; details: without verapamil; ref Köhler et al.[20]; cited from earlier work
[6] = system: HeLa cervix carcinoma cells; set-up: method as in Köhler et al.[20]; details: positive control; ref Köhler et al.[20]; cited from earlier work
[7] = system: MCF-7 breast carcinoma cells; details: positive control; ref Köhler et al.[20]; cited from earlier work
[8] = system: HDFa adult human dermal fibroblasts; set-up: method as in Köhler et al.[20]; details: non-malignant cells; ref Köhler et al.[20]; cited from earlier work
[9] = system: tested cancer and hybrid cell lines; test: MTT assay, average over all tested cancer and hybrid cell lines
Protocol: An 3-(4, 5-dimethylthiazol-2-yl)-2, 5-diphenyl tetrazolium bromid (MTT) assay was used for antiproliferative studies. Cancer cells (5 × 10^4 cells/mL, 100 μL/well) were placed in 96-well plates (10 × 10^4 cells/mL for HDFA and U87 cells), and the cells were incubated for 24 h at 5% CO2 and 95% humidity. Then, cells were treated with test compounds (at various concentrations) or solely with DMSO as a negative control for 72 h. Then, 12.5 μL of a 0.5% MTT solution in phosphate-buffered saline (PBS) was added to the cells, followed by incubation for 2 h at 37 °C. After centrifugation of the plates (300 × g, 5 min, 4 °C), the medium was discarded, and 25 μL of DMSO containing 10% SDS and 0.6% acetic acid was added, followed by incubation at 37 °C for at least 1 h. Formazan absorbance at λ = 570 nm was measured using a Tecan infinite F200 microplate reader and corrected for the background (λ = 630 nm). The 50% inhibitory concentration (IC50) values were calculated from dose-response curves (means ± SD, four independent experiments) compared to DMSO-treated control cells, which were set to 100%. GraphPad Prism 9 was used for curve-fitting.
The selectivity index (SI) was calculated as a measure of selectivity toward cancer cells compared to non-malignant cells.

IC50 ([9]; Homo sapiens, read-out: Average IC50 value of the tested cancer and hybrid cell lines (Ø IC50), average of all cell lines of Table 2): 52 nM
SMILES: N#CC1=C(N)Oc2c(ccc3ccccc23)C1c1cccc([N+](=O)[O-])c1 (stereo not drawn) [1A, 2-amino-4-(3-nitrophenyl)-4H-naphtho(1,2-b)pyran-3-carbonitrile]
IC50 [1]: 30 ± 1 nM | IC50 (518A2 melanoma cells): 10 ± 1 nM | IC50 [2]: 8 ± 0.7 nM | IC50 [3]: 30 ± 3 nM | IC50 (U-87 glioblastoma cells): 70 ± 9 nM | IC50 [4]: 30 ± 3 nM | IC50 [5]: 20 ± 2 nM | IC50 [6]: 40 ± 2 nM | IC50 [7]: 200 ± 20 nM | IC50 [8]: 40700 nM | SI (IC50 HDFa cells/IC50 tumor cell average) ([9]; selectivity index, HDFa vs tumor cell average): 786
